Source: BindingDB's records for PubMed 9536032 (Sibia Neurosciences, 1998)
“And” between values parts separate entries of the source, which are not always exact repeats. Identical values can stand only once.

Experiments:
Glutamate receptor 3 [1] = molecular target: Glutamate receptor 3 (Homo sapiens, UniProt P42263)
Glutamate receptor 3 [2] = molecular target: Glutamate receptor 3 (Rattus norvegicus, UniProt P19492)
Sequence of Glutamate receptor 3 (Rattus norvegicus, UniProt P19492) (P19492 whole entry): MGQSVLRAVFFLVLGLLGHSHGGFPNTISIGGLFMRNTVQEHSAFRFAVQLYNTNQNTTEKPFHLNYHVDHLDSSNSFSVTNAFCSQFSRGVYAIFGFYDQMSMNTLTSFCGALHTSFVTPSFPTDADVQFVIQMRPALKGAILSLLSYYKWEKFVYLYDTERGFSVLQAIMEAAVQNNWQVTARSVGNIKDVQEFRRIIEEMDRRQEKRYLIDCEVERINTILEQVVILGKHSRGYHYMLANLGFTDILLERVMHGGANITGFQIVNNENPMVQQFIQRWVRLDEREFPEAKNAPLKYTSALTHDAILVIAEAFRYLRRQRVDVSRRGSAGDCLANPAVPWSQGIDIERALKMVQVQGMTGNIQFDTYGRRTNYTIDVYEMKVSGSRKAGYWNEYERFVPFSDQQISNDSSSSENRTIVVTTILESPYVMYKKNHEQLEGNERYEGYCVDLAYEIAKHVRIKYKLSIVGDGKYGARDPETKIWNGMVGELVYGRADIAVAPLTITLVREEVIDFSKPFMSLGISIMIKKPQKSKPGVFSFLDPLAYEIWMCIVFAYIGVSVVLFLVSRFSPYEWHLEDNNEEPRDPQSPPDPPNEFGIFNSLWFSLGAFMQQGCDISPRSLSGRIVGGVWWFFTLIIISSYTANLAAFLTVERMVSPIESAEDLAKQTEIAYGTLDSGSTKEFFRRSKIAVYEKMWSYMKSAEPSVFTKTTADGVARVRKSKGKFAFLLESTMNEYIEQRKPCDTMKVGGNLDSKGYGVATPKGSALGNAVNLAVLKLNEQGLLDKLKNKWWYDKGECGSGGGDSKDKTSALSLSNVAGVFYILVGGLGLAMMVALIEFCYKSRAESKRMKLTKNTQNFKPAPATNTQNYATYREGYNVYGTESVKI

Sequence of Glutamate receptor 3 (Homo sapiens, UniProt P42263) (P42263 whole entry): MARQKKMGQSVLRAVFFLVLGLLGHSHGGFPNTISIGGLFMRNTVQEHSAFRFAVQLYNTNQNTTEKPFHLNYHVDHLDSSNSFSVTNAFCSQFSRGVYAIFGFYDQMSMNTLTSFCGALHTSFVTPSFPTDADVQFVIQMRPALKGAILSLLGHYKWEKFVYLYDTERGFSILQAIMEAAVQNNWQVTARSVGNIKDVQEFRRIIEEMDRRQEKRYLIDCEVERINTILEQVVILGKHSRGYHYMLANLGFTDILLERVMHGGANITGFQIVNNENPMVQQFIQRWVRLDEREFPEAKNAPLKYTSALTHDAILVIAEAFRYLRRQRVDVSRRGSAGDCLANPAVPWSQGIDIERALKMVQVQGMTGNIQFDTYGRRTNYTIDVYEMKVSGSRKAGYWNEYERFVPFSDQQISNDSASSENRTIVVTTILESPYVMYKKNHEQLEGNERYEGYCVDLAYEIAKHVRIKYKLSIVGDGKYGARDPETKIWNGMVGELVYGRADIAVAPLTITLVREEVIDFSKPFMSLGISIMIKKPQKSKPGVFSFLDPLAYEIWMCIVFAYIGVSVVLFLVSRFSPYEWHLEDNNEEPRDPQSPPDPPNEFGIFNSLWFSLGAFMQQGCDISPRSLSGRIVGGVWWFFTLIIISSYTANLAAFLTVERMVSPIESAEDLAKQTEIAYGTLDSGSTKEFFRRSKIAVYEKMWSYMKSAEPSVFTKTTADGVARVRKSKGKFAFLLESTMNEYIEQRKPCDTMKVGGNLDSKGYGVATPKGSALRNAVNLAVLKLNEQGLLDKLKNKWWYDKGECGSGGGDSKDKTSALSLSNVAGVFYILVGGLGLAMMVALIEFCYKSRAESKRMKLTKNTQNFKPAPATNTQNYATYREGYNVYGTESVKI

SMILES | Ki (Glutamate receptor 3 [1]) | Ki (Glutamate receptor 3 [2])
C=C(C)[C@H]1CN[C@H](C(=O)O)[C@H]1CC(=O)O [Digensaeure] | 2630 nM and 8050 nM | –
NC(CCC(=O)NCS(=O)(=O)O)C(=O)O (centres undefined) [CAS_90237-02-8] | > 10000 nM | > 10000 nM
CC1=NN=C(c2ccc(N)cc2)c2cc3c(cc2C1)OCO3 [GYKI-52466] | > 10000 nM | > 10000 nM
C/C(=C\C=C\[C@@H](C)C(=O)O)[C@H]1CN[C@H](C(=O)O)[C@H]1CC(=O)O | 2770 nM and 4590 nM | 3540 nM
O=C1N=c2c3c(ccc2=C1NO)C([N+](=O)[O-])CCC3 (centres undefined) [NSC_5311098] | > 10000 nM | > 10000 nM
N#Cc1cc2nc(O)c(O)nc2cc1[N+](=O)[O-] [7-Cyano-3-hydroxy-6-nitro-quinoxalin-2-ol anion] | – | 470 nM
N[C@@H](Cn1cc(F)c(=O)[nH]c1=O)C(=O)O [(S)-5-Fluorowillardiine] | – | 18 nM
Cc1onc(OCC(=O)O)c1CC(N)C(=O)O (centres undefined) [2-Amino-3-(3-carboxymethoxy-5-methyl-isoxazol-4-yl)-propionic acid(AMOA)] | > 10000 nM | > 10000 nM
CC(C)[C@H](NC(=O)[C@H](CCCCN)NC(=O)[C@@H](Cc1c[nH]c2ccccc12)NC(=O)[C@H](Cc1ccc(O)cc1)NC(=O)[C@H](CS)NC(=O)[C@H](N)Cc1ccc2ccccc2c1)C(=O)N[C@@H](CS)C(=O)N[C@@H](Cc1ccc2ccccc2c1)C(N)=O [Dnal,Cys,Tyr,DTrp,Lys,Val,Cys,Nal-nh2] | 494 nM | –
O=C1N=c2cc(N(O)O)c(-n3ccnc3)cc2=NC1=O [CAS_3035216] | 630 nM and 2450 nM and 1960 nM | 407 nM
O=C1N=c2cc([N+](=O)[O-])c([N+](=O)[O-])cc2=NC1=O [NSC_3140] | 2090 nM and 1660 nM | –
CN1Cc2c(S(=O)(=O)N(C)C)cc3c(c2C1)NC(=O)C3N=O (centres undefined) | 1430 nM and > 10000 nM and 8450 nM | 782 nM
